A word on the IC50: it is the concentration that gives 50% inhibition.

Where only a bound is given, the exact number is not on record here.

One series has as its system LPS-induced TNF-α release in peripheral blood mononuclear cells (PBMCs). The series is described as follows: In vitro determination of PDE4 inhibitory activity in the PBMCs assay (LPS-induced TNF-α release). It counts as cell-based. The following applies: PBMC; human PBMCs, LPS 3 ng/ml, 18 hours; read-out: PDE4 inhibition (IC50, 50% inhibition of LPS-induced TNF-α release). The protocol:
The assay, which is based on the known inhibitory activity exerted by PDE4 inhibitors on the lipopolyshaccarides (LPS)-induced tumour necrosis factor-alpha (TNF-α release in peripheral blood mononuclear cells (PBMCs), was performed according to a method previously described (Hatzelmann A et al., J. Pharmacol. Exp. Ther., 2001; 297:267-279; and Draheim R et al., J. Pharmacol. Exp. Ther., 2004; 308:555-563, both of which are incorporated herein by reference in their entireties. Cryopreserved human PBMCs, (100 μl/well) were incubated in 96-well plates (10^5 cells/well), for 30 minutes, in the presence or absence (50 microl) of the test compounds whose concentrations ranged from 10^−12 M to 10^−6 M or from 10^−13 M to 10^−7 M. Subsequently, LPS (3 ng/ml) was added. After 18 hours of incubation at 37° C. in a humidified incubator under an atmosphere of 95% air and 5% CO2, culture medium was collected and TNF-α measured by ELISA.
The results of the tested compounds, representatives of the invention, expressed as mean±95% confidence limits of the molar concentration of the test compound producing 50% inhibition of LPS-induced TNF-α release (IC50) are shown in the following Table: […]
Turning to `CS(=O)(=O)Nc1ccc2c(c1)C(=O)N(CC(=O)O[C@@H](Cc1c(Cl)c[n+]([O-])cc1Cl)c1ccc(OC(F)F)c(OCC3CC3)c1)C2=O` [Compound 167, (S)-3,5-dichloro-4-(2-(3-(cyclopropylmethoxy)-4-(difluoromethoxy)phenyl)-2-(2-(5-(methylsulfonamido)-1,3-dioxoisoindolin-2-yl)acetoxy)ethyl)pyridine 1-oxide], the IC50 is < 1 nM.
Same read-out and setting: for `O=C(CN1C(=O)C(=O)c2ccc(N3CCOCC3)cc21)O[C@@H](Cc1c(Cl)c[n+]([O-])cc1Cl)c1ccc(OC(F)F)c(OCC2CC2)c1` [Compound 142, (S)-3,5-dichloro-4-(2-(3-(cyclopropylmethoxy)-4-(difluoromethoxy)phenyl)-2-(2-(6-morpholino-2,3-dioxoindolin-1-yl)acetoxy)ethyl)pyridine 1-oxide] the value was 1 to 10 nM; for `CS(=O)(=O)N(Cc1ccccn1)c1ccc2c(c1)C(=O)N(CC(=O)O[C@@H](Cc1c(Cl)c[n+]([O-])cc1Cl)c1ccc(OC(F)F)c(OCC3CC3)c1)C2=O` [Compound 190], < 1 nM; for `COc1ccc2c(ccn2CC(=O)O[C@@H](Cc2c(Cl)c[n+]([O-])cc2Cl)c2ccc(OC(F)F)c(OCC3CC3)c2)c1` [Compound 45, (S)-3,5-dichloro-4-(2-(3-(cyclopropylmethoxy)-4-(difluoromethoxy)phenyl)-2-(2-(5-methoxy-1H-indol-1-yl)acetoxy)ethyl)pyridine 1-oxide], < 1 nM.
On the same count and under the same terms, for `O=C(CN1C(=O)c2ccccc2C1=O)O[C@H](Cc1c(Cl)c[n+]([O-])cc1Cl)c1ccc(OC(F)F)c(OCC2CC2)c1` [Compound 29] the value was > 10 nM.
On the same count and under the same terms, for `O=C(Cn1ccc2cnccc21)O[C@@H](Cc1c(Cl)c[n+]([O-])cc1Cl)c1ccc(OC(F)F)c(OCC2CC2)c1` [Compound 61] the value was 1 to 10 nM; for `CS(=O)(=O)Nc1cccc2c1C(=O)N(CC(=O)O[C@@H](Cc1c(Cl)c[n+]([O-])cc1Cl)c1ccc(OC(F)F)c(OCC3CC3)c1)C2=O` [Compound 162, (S)-3,5-dichloro-4-(2-(3-(cyclopropylmethoxy)-4-(difluoromethoxy)phenyl)-2-(2-(4-(methylsulfonamido)-1,3-dioxoisoindolin-2-yl)acetoxy)ethyl)pyridine 1-oxide], < 1 nM; for `Nc1ccc2c(c1)C(=O)N(CC(=O)O[C@@H](Cc1c(Cl)c[n+]([O-])cc1Cl)c1ccc(OC(F)F)c(OCC3CC3)c1)C2` [Compound 9, (S)-4-(2-(2-(6-amino-1-oxoisoindolin-2-yl)acetoxy)-2-(3-(cyclopropylmethoxy)-4-(difluoromethoxy)phenyl)ethyl)-3,5-dichloropyridine 1-oxide], 1 to 10 nM.

Test system in the next series: not given
Test: not given
The following applies: human, microsomes.
As to `O=C(Cn1c(=O)oc2ccccc21)O[C@@H](Cc1c(Cl)c[n+]([O-])cc1Cl)c1ccc(OC(F)F)c(OCC2CC2)c1` [Compound 24], the “intrinsic Clearance” value is on record as > 15 mL/min/g.

The values above are taken from patent US9024027B2, “Derivatives of 1-phenyl-2-pyridinyl alkyl alcohols as phosphodiesterase inhibitors” (Chiesi Farmaceutici S.p.A., priority 2011, dated 2015).
